Assay: Ames test
Format: cell-based
Conditions: impurity contained in the prepared AFDX0250; found in the development stage of a pharmaceutical composition

## O=C1Nc2cccnc2N(C(=O)CCl)c2ccccc21 [Compound 1, 11-(2-chloroacetyl)-5,11-dihydro-6H-pyrido[2,3-b][1,4]benzodiazepin-6-one]
  Ames test result: positive

Source: patent US20250214992A1, “HIGH-PURITY COMPOUND PRODUCTION METHOD AND PURIFICATION METHOD” (SANTEN PHARMACEUTICAL CO., LTD., priority 2022, published 2025)
